Measured values reported in patent US9642874B2, “Compositions of selenoorganic compounds and methods of use thereof” (Alltech, Inc., priority 2014, dated 2017).

Legend:
[1] = test system: Igf1r; test: Igf1r mRNA expression (QRT-PCR) in AML-12 cells; type: cell-based, mouse; details: insulin alone, 6 hours, without 8-CPT/Dex
Experimental: For RNA analysis of insulin receptor (Insr), insulin like growth factor receptor (Igf1r), and Glucose-6-Phosphatase (G6pc), AML-12 cells were amplified in ITS, Dex and FBS-containing DMEM/F12 media, and cultured on 24-well (6.7×10^4 cells/well) plates in 10% FBS ITS-free DMEM/F12 media with or without Dex overnight. These cells were treated with control (water) or various compounds (diluted in 10% FBS ITS-free DMEM/F12 media with or without Dex) for 6 hours, 24 hours, or 48 hours.
In some experiments, the AML-12 cells were washed twice with PBS after the compound treatments for 24 hours, and then incubated with selenium compounds (150 or 300 ppb of each compound) in the presence or absence of insulin (10 or 100 nM), 0.1 mM 8-CPT (Sigma), or 0.5 μM Dex in serum-free, glucose/phenol red-free DMEM media supplemented with 20 mM lactose and 2 mM pyruvate, and 15 mM HEPES (glucose-production media) for another 6 hours. After treatments, cell media were collected and subjected to glucose assays using Abcam glucose assay kit according to the manufacturer's protocol. […]
Total RNA from these cells was isolated using Trizol (Invitrogen) according to the manufacturer's protocol, and then incubated with DNase I to remove any potential contaminated genomic DNA. […] Three to six samples were analyzed in each treatment group. […]

[2] = test system: PDK1; test: Western blot of pPdk1 in primary mouse hepatocytes; type: cell-based; details: 100 nM insulin 6 hours, or Compounds CDE both doses 24 hours + 6 hours
Experimental: The overnight-acclimated hepatocytes were washed twice with PBS (to remove any residual FBS and other additives in the TRL hepatocyte maintenance medium, pretreated with control (water) or selenium Compounds CDE (150 or 300 ppb of each selenium compound) in DMEM/F12 media supplemented with 10% fetal bovine serum (FBS) for 24 hr. These cells were then washed twice with PBS and incubated with the same dose of selenium Compounds CDE (150 or 300 ppb) in the presence or absence of insulin (10 or 100 nM, Sigma), 0.1 mM 8-CPT (Sigma) or 0.5 μM Dex (Sigma) in serum-free and glucose-free DMEM media (Invitrogen) supplemented with 20 mM lactose (Sigma) and 2 mM pyruvate (Sigma) and 15 mM HEPES (Sigma) for another 6 hours. […]
After the above described treatments, primary mouse hepatocytes were rinsed with ice-cold PBS and lysed in the ice-cold RIPA buffer containing complete proteinase and phosphatase inhibitors (Thermo-Fisher Scientific, Waltham, Mass.) on ice for 30 min Cell lysates were collected using a cell scraper and transfer pipette and then centrifuged at 12000×g for 30 min at 4° C. to remove the DNA pellet and obtain the protein extract. Protein levels in the supernatant of these cell lysates were determined using the Pierce Micro-BCA protein assay kit (Thermo Scientific-Piece Biotechnology, Rockford, Ill.) according to the manufacturer's protocol. […]

insulin: insulin (10 or 100 nM, Sigma) used as comparator and cotreatment
Igf1r expression [1]: did not increase
pPdk1 protein level (in words) [2]: significant increase
